Laboratory results published in patent US10370378B2, “Treatment of sleep disorders” (Evotec International GmbH, priority 2007, dated 2019).

Legend:
[1] = test system: primary insomnia, subjects at least 65 years old; assay: Example 4: placebo-controlled parallel group study, 7 nights dosing, elderly subjects with primary insomnia; assay type: in vivo, human; settings: for Number of subjects with any event (%): number (percent); for Adjusted mean LPS / Adjusted mean TST / Adjusted mean WASO: PSG, average of nights 1, 6 and 7; for LPS % change from placebo / WASO % change from placebo: decrease; for TST % change from placebo: increase
Experimental: A randomized, double-blind, placebo-controlled parallel group design was used to assess the hypnotic efficacy of 1.5 mg and 2.5 mg doses of the compound of formula (II) following 7 nights dosing using 149 subjects. The study was conducted in 20 sleep laboratories in the United States using both objective and subjective measures. PSG data was collected on nights 1, 6 and 7 and results are based on the mean data from these three nights. The compound of formula (II) was administered in free base form as a powder in a capsule.
The subjects were males and females at least 65 years old with a documented diagnosis of primary insomnia (DSM-IV criteria). These subjects' typical bed time was between 9 pm and 1 am with at least 7 hours in bed. These subjects reported five nights or more in seven days with TST of not more than 6.5 hours with at least 7 hours in bed. […] On screening using PSG for 2 nights, mean TST was 240-420 minutes. Mean latency in Multiple Sleep Latency Test (MSLT) was at least 5.5 minutes and not more than 14 minutes.
PSG was used to obtain TST (average of nights 1, 6 and 7). The daytime function (day 8) was measured using Psychomotor Vigilance Task (PVT), MSLT (MSLT Clinical Guidelines; Sleep, 1(3): 260-276 (1992)), Karolinska Sleepiness Scale (KSS); and objective measures Rey Auditory Verbal Learning Test (RAVLT) (day 8) (assessed 30±10 minutes after lights-on). Sleep architecture, subject reported sleep variables and categorical rating of sleep quality and safety endpoints including the Benzodiazepine Withdrawal Questionnaire were also determined.

[2] = test system: primary insomnia in adult patients; assay: Example 3: placebo-controlled crossover study in primary insomnia, adult patients younger than 65 (PSG, patient reports, DSST, safety); assay type: in vivo, human; settings: for Number of Patients with Any Event / Number of Patients with Headache / Number of Patients with Somnolence: number (percent)
Experimental: A randomized, multicenter, double-blind, placebo-controlled crossover study was conducted to assess the efficacy of the 1.5 mg and 2.5 mg doses of the compound of formula (II) in the treatment of primary insomnia in adult patients. Specifically, one of the objectives of the study was to asses the efficacy of 1.5 mg and 2.5 mg doses on PSG and patient-reported measures of sleep. Also, the study was aimed at assessing the safety of 1.5 mg and 2.5 mg doses.
The study in this Example was performed for two consecutive nights with a 5-12 day washout between each period. The dosing was conducted 30 minutes before lights were turned out for the night via oral administration of a hard gelatine capsule containing the compound of formula (II) (free base) in powder form. PSG was taken for 8 hours from “lights out” on nights 1 and 2 of each treatment period. Centralized scoring of PSG was used. Testing for residual effects using the Digit Symbol Substitution Test (DSST) was performed at least 30 minutes after wake time (9 hours post dose).
The study was conducted using 67 subjects younger than 65 years of age (21 males, 46 females; mean age 45.1 yrs, range 23-64 yrs) with a documented diagnosis of primary insomnia (DSM-IV criteria). These subjects' typical bed time was between 9 pm and 1 am with at least 7 hours in bed. These subjects reported sleep latency of at least 45 minutes and TST of not more than 6.5 hours in a sleep diary for at least 3 of 7 nights.
Mean WASO of the patients was at least 40 minutes and mean TST was 240-420 minutes.

[3] = 1.5 mg and 2.5 mg, across 7 nights

Structure (SMILES): CN(C)Cc1nc(-c2ncn3c2CN(C)C(=O)c2c(Cl)cccc2-3)no1 [compound of formula (II), 7-chloro-3-(5-dimethylaminomethyl-[1,2,4]oxadiazol-3-yl)-5-methyl-4,5-dihydro-imidazo[1,5-a][1,4]benzodiazepine-6-one]
- increase of mean TST compared to placebo ([1]; 1.5 mg): 30.9 min
- Dizziness, number of subjects (%) ([1]; 1.5 mg (n = 53)): 3 (5.7)
- Headache, number of subjects (%) ([1]; 1.5 mg (n = 53)): 5 (9.4)
- Somnolence, number of subjects (%) ([1]; 1.5 mg (n = 53)): 1 (1.9)
- Number of subjects with any event (%) ([1]; 1.5 mg (n = 53)): 15 (28.3)
- safety and tolerability ([1]; 1.5 mg and 2.5 mg doses, elderly): safe and well-tolerated
- sTST [1, 3]: significant increase
- sWASO [1, 3]: significant decrease
- subject-reported sleep onset latency [1, 3]: significant reduction
- Adjusted mean LPS ([1]; 1.5 mg): 30.5 min
- Adjusted mean TST ([1]; 1.5 mg): 369.5 min
- Adjusted mean WASO ([1]; 1.5 mg): 86.2 min
- LPS % change from placebo ([1]; 1.5 mg): 34%
- WASO % change from placebo ([1]; 1.5 mg): 15%
- total wake time hour by hour ([1]; 1.5 mg, each hour up to hour 6): significantly reduced
- TST % change from placebo ([1]; 1.5 mg): 9%
- WASO in the second half of the night (5-8 hours after lights out) ([1]; 2.5 mg): significant decrease
- increase of mean TST compared to placebo ([1]; 2.5 mg): 56.4 min
- Dizziness, number of subjects (%) ([1]; 2.5 mg (n = 52)): 5 (9.6)
- Headache, number of subjects (%) ([1]; 2.5 mg (n = 52)): 3 (5.8)
- Somnolence, number of subjects (%) ([1]; 2.5 mg (n = 52)): 6 (11.5)
- Number of subjects with any event (%) ([1]; 2.5 mg (n = 52)): 19 (36.5)
- Adjusted mean LPS ([1]; 2.5 mg): 26.5 min
- Adjusted mean TST ([1]; 2.5 mg): 395 min
- Adjusted mean WASO ([1]; 2.5 mg): 65.3 min
- LPS % change from placebo ([1]; 2.5 mg): 43%
- WASO % change from placebo ([1]; 2.5 mg): 36%
- TWT hour by hour ([1]; 2.5 mg, every hour except hour 7): significantly reduced
- TST % change from placebo ([1]; 2.5 mg): 17%
- residual sedation, subject reported ([1]; 30 minutes post wake time (approximately 9 hours post dose)): no residual sedation
- KSS (subjective) versus placebo ([1]; day 8): no significant difference
- MSLT average sleep latency over all timepoints (2, 4, 6, 8 & 10 hours post wake time) ([1]; day 8, daytime function): increased
- Benzodiazepine Withdrawal Questionnaire versus placebo ([1]; either dose): No significant difference
- PVT or RAVLT versus placebo ([1]; either dose, day 8): no significant differences
- sleep architecture (PSG) ([1]; human, in vivo): generally preserved sleep architecture
- subjective sleep quality ([1]; over all 7 nights of dosing): sustained improvement
- Number of Patients with Any Event ([2]; 1.5 mg (n = 71)): 13 (18.3%)
- Number of Patients with Headache ([2]; 1.5 mg (n = 71)): 3 (4.2%)
- Number of Patients with Somnolence ([2]; 1.5 mg (n = 71)): 2 (2.8%)
- safety and tolerability ([2]; 1.5 mg and 2.5 mg doses): safe and well-tolerated
- patient-reported residual sedation effects compared with placebo ([2]; 1.5 mg or 2.5 mg): no patient-reported residual sedation effects
- Number of Patients with Any Event ([2]; 2.5 mg (n = 71)): 18 (25.4%)
- Number of Patients with Headache ([2]; 2.5 mg (n = 71)): 6 (8.5%)
- Number of Patients with Somnolence ([2]; 2.5 mg (n = 71)): 4 (5.6%)
- total time awake during each hour after dosing ([2]; 2.5 mg, each hour except hour 7 (p 0.0577)): statistically significant reduction
- REM sleep (sleep architecture) ([2]; 1.5 and 2.5 mg): only a small effect
- slow wave sleep (sleep architecture) ([2]; 1.5 and 2.5 mg): no impairment
- patient reported sleep quality ([2]; 1.5 and 2.5 mg doses): marked improvement
- DSST scores compared with placebo ([2]; 9 hours after dose): only slightly lower
